Earlier results, collected in patent US20070092440A1, “Bone localising radiopharmaceutical and tubulin-interacting compound combinatorial” (priority 2003, published 2007).

Experiments:
[1] = in vivo
[2] = system: HRPC patients with bone metastases
[3] = repeated dosing with 1.0 mCi/kg
[4] = supplied frozen
[5] = system: bone pain, osteoblastic metastatic bone lesions; conditions: for treated patients with symptomatic relief of bone pain: in vivo
[6] = in bone
[7] = system: leukocyte and platelet counts; conditions: 1.0 mCi/kg

**Q.** With CC(=O)O[C@@]12CO[C@@H]1C[C@H](O)[C@@]1(C)C(=O)[C@H](O)C3=C(C)[C@@H](OC(=O)[C@H](O)[C@@H](NC(=O)OC(C)(C)C)c4ccccc4)C[C@@](O)([C@@H](OC(=O)c4ccccc4)[C@H]21)C3(C)C [docetaxel] as the compound, how does the myelosuppression [1] read?
**A.** Myelosuppression has been observed

**Q.** Which results are given for COc1cccc2c1C(=O)c1c(O)c3c(c(O)c1C2=O)C[C@@](O)(C(=O)CO)C[C@@H]3O[C@H]1C[C@H](N)[C@H](O)[C@H](C)O1 [doxorubicin]?
**A.** overall survival ([2]; 72 HRPC patients with bone metastases, randomized): 16.8 months; incidence of Grade 3/4 neutropenia ([2]; in vivo): 22%

**Q.** With O=P([O-])(O)CN(CCN(CP(=O)([O-])O)CP(=O)(O)O)CP(=O)([O-])O.[153Sm+3] [samarium Sm 153 lexidronam] as the compound, how does the “cumulative toxicity on repeated dosing” value [3] read?
**A.** not associated with cumulative toxicity

**Q.** What about the myelosuppression [1] of the same compound?
**A.** Myelosuppression has been observed

**Q.** What about the “drug product expiry after the time of calibration” value [4] of the same compound?
**A.** 48 h

**Q.** What about the “patients with pain relief at Week 4 who still had pain relief at Week 16” value ([5]; 1.0 mCi/kg dose group) of the same compound?
**A.** two-thirds

**Q.** And the “treated patients with symptomatic relief of bone pain” value [5]?
**A.** approximately 80%

**Q.** What about the “time in which the majority of excretion occurs” value (after administration) of the same compound?
**A.** ≤ 8 h

**Q.** And the “time to complete excretion” value (after administration)?
**A.** ≤ 12 h

**Q.** And the clearance route (in vivo)?
**A.** exclusively renal

**Q.** What about the “uptake by nonosseous tissue” value (in vivo) of the same compound?
**A.** no significant uptake

**Q.** And the range of emission [6]?
**A.** 1.7 mm

**Q.** What about the “median time of nadir of leukocyte and platelet counts” value [7] of the same compound?
**A.** 4 weeks

**Q.** What about the “patients with Grade 3/4 haematologic toxicity” value [7] of the same compound?
**A.** < 10%

**Q.** What about the “time by which recovery of counts is generally complete” value [7] of the same compound?
**A.** 5-8 weeks

**Q.** For [89Sr+2].[Cl-].[Cl-] [strontium 89 chloride], which “treated patients with symptomatic relief of bone pain” value [5] is on record?
**A.** approximately 80%
